Test results as given in US10849960B2 (priority 2017, dated 2020).

B1: IFNα: human IFN-α2a, gift of Hoffmann LaRoche (protein)
chain: MARPFAFLMVLVVISYWSTCSLGCDLPQTHNLRNKKILTLLAQMRRLSPLSCLKDRKDFGFPQEKVDAQQIQEAQAIPVLSELTQQILTLFTSKDSSAAWNATLLDSFCTGLHQLLNDLQGCLMQLVGMKELPLTQEDSQLAMKKYFHRITVYLREKKHSPCAWEVVRAEVWRALSSSVNLLARLSEEKE
modifications: Mouse
notes: human IFN-α2a, gift of Hoffmann LaRoche

Legend:
Format in all cases: cell-based, human
[1] = tested on: STAT1; assay: Western blot for phosphorylated STAT1; details: OVCAR-5 and A2780 cell lines; 20 minutes
Protocol: FIGS. 6A-6B: Western blot analysis of IFN and IL4-PE STAT activation. (FIG. 6A) Western blots for phosphorylated STAT1 in OVCAR-5 and A2780 cells stimulated with IFNα2a, IFNγ, IL4-PE, or all three agents for 20 minutes at the highest concentrations from FIGS. 1A-1B (representative of three separate experiments). (FIG. 6B) Western blots for phosphorylated STAT6 in OVCAR-5 and A2780 cells stimulated with IFNα2a, IFN, IL4-PE, or all three agents for 20 minutes (representative of three separate experiments). P38 protein kinase was used as a loading control.
Cell pellets were snap-frozen and stored at −80° C. Pellets were thawed and lysed with MPER buffer supplemented with protease inhibitors. Cell lysates were centrifuged at 13,000 RPM at 4° C. for 20 minutes to clarify the lysate. The clarified lysate was removed and placed in a new vial. The protein concentration was measured using a NANODROP® Spectrophotometer (LIFE TECHNOLOGIES®, Wilmington, Del.). The lysate was mixed with reducing loading buffer (LIFE TECHNOLOGIES®, Waltham Mass.) and heated at 90° C. for 10 minutes. The samples were allowed to cool and were either used immediately or stored at 4° C. for future analysis. The samples were analyzed using 10% Bis-Tris gels and then transferred to nitrocellulose membranes per the manufacturer's directions. […]

[2] = tested on: OVCAR-5 cells; assay: Chemical inhibition of Jak signaling, cytotoxicity assay; details: inhibitor 10 μM, 2 hours before, 20/4 and 200/40 ng/mL IFNs/IL4-PE, 3 days
Protocol: (§1) FIGS. 7A-7D: Chemical inhibition of Jak signaling. OVCAR-5 cells (FIGS. 7A-7B) or A2780 cells (FIGS. 7C-7D) were treated with either ruxolitinib or tofacitinib for 2 hours at a final concentration of 10 μm before different concentrations of IFNs, IL4-PE or the combination of each were added. Percent viability was measured after 3 days in culture.
(§2) Cell lines were seeded at 10^4 cells/well in a 96-well plate in 100 μL of media and incubated until adherence (4 hr, 37° C., 5% CO2). Serial dilutions of IL4-PE, IFN-α2a, or IFN-γ were added and incubated for three days. IFNs were diluted using serial dilutions in cRPMI to obtain a final concentration of 200 ng/mL of both IFN-α2a or IFN-γ. For ruxolitinib and tofacitinib studies, 10 μM (final concentration) was added to the plates and incubated at 37° C. for 2 hours before IFNs or IL4-PE was added. The media was then removed, and cell viability was determined by crystal violet dye uptake in fixed, live cells. Crystal violet is a triarylmethane dye that binds to ribose type molecules such as DNA in nuclei. The dye staining is directly proportional to the cell biomass. Dye absorbance was measured at 570 nm using a spectrophotometer.

[3] = tested on: A2780 cells; assay: as above; details: inhibitor 10 μM, 2 hours before
Protocol: as §1, §2

Row | Molecule | STAT1 phosphorylation [1] | effect on IFN- and IFNs and IL4-PE-mediated cell death / IFN signaling [2] | effect on IFN signaling / IFN-mediated killing [3]
1 | IFNγ: IFN-γ purchased from INTERMUNE Pharmaceutical Inc. | induced | – | –
2 | C[C@@H]1CCN(C(=O)CC#N)C[C@@H]1N(C)c1ncnc2[nH]ccc12 [Tofacitinib, tofacitinib] | – | dose-dependent blocking of IFN signaling | blocked
3 | B1 | induced | – | –
